One data set has as its system HCV 1b-Con1 replicon. Briefly: HCV 1b-Con1 replicon assay in the presence of 5% FBS. It counts as cell-based. Conditions: Hepatitis C virus. (In general: A replicon is a self-replicating genome or part of one, used to study replication in cells.)
Data set [1] relates to HCV 2a, 2b, 3a and 4a replicons. Briefly: HCV 2a, 2b, 3a and 4a replicon assays in the absence of human plasma. Type of data set: cell-based. On the procedure:
The inhibitory effects of the compounds of the invention on HCV replication can be determined by measuring activity of the luciferase reporter gene. For example, replicon-containing cells can be seeded into 96 well plates at a density of 5000 cells per well in 100 μl DMEM containing 5% FBS. The following day compounds can be diluted in dimethyl sulfoxide (DMSO) to generate a 200× stock in a series of eight half-log dilutions. The dilution series can then be further diluted 100-fold in the medium containing 5% FBS. Medium with the inhibitor is added to the overnight cell culture plates already containing 100 μl of DMEM with 5% FBS. In assays measuring inhibitory activity in the presence of human plasma, the medium from the overnight cell culture plates can be replaced with DMEM containing 40% human plasma and 5% FBS. […] Luciferin solution (100 μl, Promega) can be added to each well, and luciferase activity can be measured with a Victor II luminometer (Perkin-Elmer). The percent inhibition of HCV RNA replication can be calculated for each compound concentration and the EC50 value can be calculated using nonlinear regression curve fitting to the 4-parameter logistic equation and GraphPal Prism 4 software.

Data set [2] can be described thus: AUC value (pharmacokinetics). Conditions: in vivo.

Usually EC50 stands for the concentration giving half of the maximal effect. Consider `COC(=O)N[C@H](C(=O)N1CCC[C@H]1c1nc2cc([C@H]3CC[C@H](c4ccc5[nH]c([C@@H]6CCCN6C(=O)[C@@H](NC(=O)OC)C(C)C)nc5c4)N3c3ccc(N4CCC(c5ccccc5)CC4)c(F)c3)ccc2[nH]1)C(C)C` [Example 3.20, methyl {(2S)-1-[(2S)-2-{5-[(2R,5R)-1-[3-fluoro-4-(4-phenylpiperidin-1-yl)phenyl]-5-{2-[(2S)-1-{(2S)-2-[(methoxycarbonyl)amino]-3-methylbutanoyl}pyrrolidin-2-yl]-1H-benzimidazol-5-yl}pyrrolidin-2-yl]-1H-benzimidazol-2-yl}pyrrolidin-1-yl]-3-methyl-1-oxobutan-2-yl}carbamate], for which the EC50 in the data set with HCV 1b-Con1 replicon is < 0.1 nM. For the same molecule, the “EC50 values, fold less than those of Example 4.25” value in data set [1] is “at least 15 fold”.

`COC(=O)N[C@H](C(=O)N1CCC[C@H]1c1nc2cc([C@H]3CC[C@H](c4cc5[nH]c([C@@H]6CCCN6C(=O)[C@@H](NC(=O)OC)C(C)C)nc5cc4F)N3c3ccc(C(C)(C)C)cc3)c(F)cc2[nH]1)C(C)C` [Example 6.1, methyl {(2S)-1-[(2S)-2-{5-[(2R,5R)-1-(4-tert-butylphenyl)-5-{5-fluoro-2-[(2S)-1-{(2S)-2-[(methoxycarbonyl)amino]-3-methylbutanoyl}pyrrolidin-2-yl]-1H-benzimidazol-6-yl}pyrrolidin-2-yl]-6-fluoro-1H-benzimidazol-2-yl}pyrrolidin-1-yl]-3-methyl-1-oxobutan-2-yl}carbamate]: the EC50 in the data set on HCV 1b-Con1 replicon is < 0.1 nM. For the same molecule, the “AUC value, fold greater than that of Example 109 of the '301 application” value in data set [2] was “about 9 fold”.

Turning to `COC(=O)N[C@H](C(=O)N1CCC[C@H]1C(=O)Nc1ccc(C2CC[C@@H](c3ccc(NC(=O)[C@@H]4CCCN4C(=O)[C@@H](NC(=O)OC)C(C)C)cc3)N2c2cc(F)c(N3CCC(c4ccccc4)CC3)c(F)c2)cc1)C(C)C` (stereo partly drawn) [Example 8, dimethyl ({(2S)-1-[3,5-difluoro-4-(4-phenylpiperidin-1-yl)phenyl]pyrrolidine-2,5-diyl}bis{4,1-phenylenecarbamoyl(2S)pyrrolidine-2,1-diyl[(2S)-3-methyl-1-oxobutane-1,2-diyl]})biscarbamate], in the data set on HCV 1b-Con1 replicon, the half-maximal effective concentration (EC50) is < 0.1 nM.

Regarding `COC(=O)N[C@H](C(=O)N1CCC[C@H]1c1nc(-c2ccc([C@H]3CC[C@H](c4ccc(-c5c[nH]c([C@@H]6CCCN6C(=O)[C@@H](NC(=O)OC)C(C)C)n5)cc4)N3c3cc(F)c(N4CCC(c5ccccc5)CC4)c(F)c3)cc2)c[nH]1)C(C)C` [Example 9, methyl {(2S)-1-[(2S)-2-(4-{4-[(2R,5R)-1-[3,5-difluoro-4-(4-phenylpiperidin-1-yl)phenyl]-5-(4-{2-[(2S)-1-{(2S)-2-[(methoxycarbonyl)amino]-3-methylbutanoyl}pyrrolidin-2-yl]-1H-imidazol-4-yl}phenyl)pyrrolidin-2-yl]phenyl}-1H-imidazol-2-yl)pyrrolidin-1-yl]-3-methyl-1-oxobutan-2-yl}carbamate], the EC50 in the data set on HCV 1b-Con1 replicon was < 0.1 nM.

For the molecule `COC(=O)N[C@H](C(=O)N1[C@H](c2nc3cc([C@H]4CC[C@H](c5ccc6[nH]c([C@@H]7C[C@@H]8CCC[C@@H]8N7C(=O)[C@@H](NC(=O)OC)C7CCOCC7)nc6c5)N4c4cc(F)c(N5CCCCC5)c(F)c4)ccc3[nH]2)C[C@@H]2CCC[C@@H]21)C(C)C` [Example 10.1, methyl [(1S)-2-[(2S,3aS,6aS)-2-{5-[(2R,5R)-1-[3,5-difluoro-4-(piperidin-1-yl)phenyl]-5-{2[(2S,3aS,6aS)-1-{(2S)-2-[(methoxycarbonyl)amino]-3-methylbutanoyl}octahydrocyclopenta[b]pyrrol-2-yl]-1H-benzimidazol-5-yl}pyrrolidin-2-yl]-1H-benzimidazol-2-yl}hexahydrocyclopenta[b]pyrrol-1(2H)-yl]-2-oxo-1-(tetrahydro-2H-pyran-4-yl)ethyl]carbamate], the EC50 in the data set with HCV 1b-Con1 replicon was < 0.1 nM.

Consider `COC(=O)N[C@H](C(=O)N1[C@H](c2nc3cc([C@H]4CC[C@H](c5ccc6[nH]c([C@@H]7C[C@@H]8CCC[C@@H]8N7C(=O)[C@@H](NC(=O)OC)[C@@H](C)OC)nc6c5)N4c4cc(F)c(N5CCCCC5)c(F)c4)ccc3[nH]2)C[C@@H]2CCC[C@@H]21)C(C)C` [Example 10.2, methyl {(2S,3R)-1-[(2S,3aS,6aS)-2-{5-[(2R,5R)-1-[3,5-difluoro-4-(piperidin-1-yl)phenyl]-5-{2-[(2S,3aS,6aS)-1-{(2S)-2-[(methoxycarbonyl)amino]-3-methylbutanoyl}octahydrocyclopenta[b]pyrrol-2-yl]-1H-benzimidazol-5-yl}pyrrolidin-2-yl]-1H-benzimidazol-2-yl}hexahydrocyclopenta[b]pyrrol-1(2H)-yl]-3-methoxy-1-oxobutan-2-yl}carbamate], for which the EC50 in the data set on HCV 1b-Con1 replicon is < 0.1 nM.

Take `COC(=O)N[C@H](C(=O)N1CCC[C@H]1c1nc2cc([C@H]3CC[C@H](c4ccc5[nH]c([C@@H]6CCCN6C(=O)[C@@H](NC(=O)OC)C6CCOCC6)nc5c4)N3c3cc(F)c(N4CCC(c5ccccc5)CC4)c(F)c3)ccc2[nH]1)C(C)C` [Example 11.1, methyl [(1S)-2-[(2S)-2-{5-[(2R,5R)-1-[3,5-difluoro-4-(4-phenylpiperidin-1-yl)phenyl]-5-{2-[(2S)-1-{(2S)-2-[(methoxycarbonyl)amino]-3-methylbutanoyl}pyrrolidin-2-yl]-1H-benzimidazol-5-yl}pyrrolidin-2-yl]-1H-benzimidazol-2-yl}pyrrolidin-1-yl]-2-oxo-1-(tetrahydro-2H-pyran-4-yl)ethyl]carbamate]: the EC50 in the data set on HCV 1b-Con1 replicon was < 0.1 nM.

`COC(=O)N[C@H](C(=O)N1CCC[C@H]1c1nc2cc([C@H]3CC[C@H](c4ccc5[nH]c(C6CCCC6)nc5c4)N3c3cc(F)c(N4CCC(c5ccccc5)CC4)c(F)c3)ccc2[nH]1)C(C)C` [Example 11.2, methyl {(2S)-1-[(2S)-2-(5-{(2R,5R)-5-(2-cyclopentyl-1H-benzimidazol-5-yl)-1-[3,5-difluoro-4-(4-phenylpiperidin-1-yl)phenyl]pyrrolidin-2-yl}-1H-benzimidazol-2-yl)pyrrolidin-1-yl]-3-methyl-1-oxobutan-2-yl}carbamate]: the EC50 in the data set on HCV 1b-Con1 replicon was < 0.1 nM.

`COC(=O)N[C@H](C(=O)N1CCC[C@H]1c1ncc(-c2cccc(C3(c4cccc(-c5cnc([C@@H]6CCCN6C(=O)[C@@H](NC(=O)OC)C(C)C)[nH]5)c4)CN(c4ccc(C(C)(C)C)cc4)C3)c2)[nH]1)C(C)C` [Example 12.1, methyl {(2S)-1-[(2S)-2-(5-{3-[1-(4-tert-butylphenyl)-3-(3-{2-[(2S)-1-{(2S)-2-[(methoxycarbonyl)amino]-3-methylbutanoyl}pyrrolidin-2-yl]-1H-imidazol-5-yl}phenyl)azetidin-3-yl]phenyl}-1H-imidazol-2-yl)pyrrolidin-1-yl]-3-methyl-1-oxobutan-2-yl}carbamate]: the EC50 in the data set with HCV 1b-Con1 replicon lay in the range of 1 to 10 nM.

Take `COC(=O)N[C@H](C(=O)N1CCC[C@H]1c1ncc(-c2cccc(C3(c4cccc(-c5cnc([C@@H]6CCCN6C(=O)[C@@H](NC(=O)OC)C(C)C)[nH]5)c4)CN(c4ccccc4)C3)c2)[nH]1)C(C)C` [Example 12.2, methyl {(2S)-1-[(2S)-2-(5-{3-[3-(3-{2-[(2S)-1-{(2S)-2-[(methoxycarbonyl)amino]-3-methylbutanoyl}pyrrolidin-2-yl]-1H-imidazol-5-yl}phenyl)-1-phenylazetidin-3-yl]phenyl}-1H-imidazol-2-yl)pyrrolidin-1-yl]-3-methyl-1-oxobutan-2-yl}carbamate]: in the data set with HCV 1b-Con1 replicon, the EC50 was in the range of 1 to 10 nM.

These data come from US20120220562A1, “Anti-Viral Compounds” (ABBOTT LABAORATORIES, priority 2011, published 2012).
